# Laboratory results reported in patent publication US11192877B2, “3-(5-hydroxy-1-oxoisoindolin-2-yl)piperidine-2,6-dione derivatives and uses thereof” (Novartis AG, priority 2018, dated 2021).
# Molecular target: IKZF2 (Helios) (Homo sapiens, UniProt Q96SW2+Q9UKS7)
# Assay: Prolabel quantification of IKZF2 protein levels in 293GT cells
# Assay type: cell-based
# Settings: 24 h, Pro-label assay, 293GT cells, 10 μM, read-out: IKZF2 % protein reduction at 10 μM, 24 h
# Chain of IKZF2 (Helios) (Q9UKS7 whole entry): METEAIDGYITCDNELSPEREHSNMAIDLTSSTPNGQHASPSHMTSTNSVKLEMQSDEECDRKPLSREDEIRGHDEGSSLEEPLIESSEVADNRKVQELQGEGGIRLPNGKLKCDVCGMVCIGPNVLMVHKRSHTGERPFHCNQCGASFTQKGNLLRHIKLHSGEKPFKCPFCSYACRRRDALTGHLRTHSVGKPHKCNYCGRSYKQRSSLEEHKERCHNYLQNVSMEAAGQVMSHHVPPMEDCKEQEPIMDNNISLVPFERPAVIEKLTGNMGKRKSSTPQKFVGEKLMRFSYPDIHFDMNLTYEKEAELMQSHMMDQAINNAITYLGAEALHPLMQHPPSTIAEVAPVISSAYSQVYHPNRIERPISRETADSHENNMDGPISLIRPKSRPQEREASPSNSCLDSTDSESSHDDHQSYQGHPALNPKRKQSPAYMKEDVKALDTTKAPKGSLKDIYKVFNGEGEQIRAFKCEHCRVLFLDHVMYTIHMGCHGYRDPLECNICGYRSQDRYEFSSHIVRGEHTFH
# Chain of IKZF2 (Helios) (Q96SW2 whole entry): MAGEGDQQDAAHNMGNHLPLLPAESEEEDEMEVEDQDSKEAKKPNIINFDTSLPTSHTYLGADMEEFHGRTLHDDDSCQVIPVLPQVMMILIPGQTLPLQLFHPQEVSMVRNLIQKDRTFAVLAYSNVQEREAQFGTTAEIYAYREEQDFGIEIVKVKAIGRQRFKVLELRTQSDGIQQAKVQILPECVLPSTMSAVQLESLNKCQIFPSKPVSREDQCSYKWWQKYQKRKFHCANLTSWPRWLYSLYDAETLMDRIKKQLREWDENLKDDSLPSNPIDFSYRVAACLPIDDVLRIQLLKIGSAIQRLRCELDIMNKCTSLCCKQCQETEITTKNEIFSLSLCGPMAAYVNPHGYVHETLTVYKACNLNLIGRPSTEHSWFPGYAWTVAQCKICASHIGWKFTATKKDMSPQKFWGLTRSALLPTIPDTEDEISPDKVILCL
# Chain of IKZF2 (Helios) (Q16531 whole entry partner): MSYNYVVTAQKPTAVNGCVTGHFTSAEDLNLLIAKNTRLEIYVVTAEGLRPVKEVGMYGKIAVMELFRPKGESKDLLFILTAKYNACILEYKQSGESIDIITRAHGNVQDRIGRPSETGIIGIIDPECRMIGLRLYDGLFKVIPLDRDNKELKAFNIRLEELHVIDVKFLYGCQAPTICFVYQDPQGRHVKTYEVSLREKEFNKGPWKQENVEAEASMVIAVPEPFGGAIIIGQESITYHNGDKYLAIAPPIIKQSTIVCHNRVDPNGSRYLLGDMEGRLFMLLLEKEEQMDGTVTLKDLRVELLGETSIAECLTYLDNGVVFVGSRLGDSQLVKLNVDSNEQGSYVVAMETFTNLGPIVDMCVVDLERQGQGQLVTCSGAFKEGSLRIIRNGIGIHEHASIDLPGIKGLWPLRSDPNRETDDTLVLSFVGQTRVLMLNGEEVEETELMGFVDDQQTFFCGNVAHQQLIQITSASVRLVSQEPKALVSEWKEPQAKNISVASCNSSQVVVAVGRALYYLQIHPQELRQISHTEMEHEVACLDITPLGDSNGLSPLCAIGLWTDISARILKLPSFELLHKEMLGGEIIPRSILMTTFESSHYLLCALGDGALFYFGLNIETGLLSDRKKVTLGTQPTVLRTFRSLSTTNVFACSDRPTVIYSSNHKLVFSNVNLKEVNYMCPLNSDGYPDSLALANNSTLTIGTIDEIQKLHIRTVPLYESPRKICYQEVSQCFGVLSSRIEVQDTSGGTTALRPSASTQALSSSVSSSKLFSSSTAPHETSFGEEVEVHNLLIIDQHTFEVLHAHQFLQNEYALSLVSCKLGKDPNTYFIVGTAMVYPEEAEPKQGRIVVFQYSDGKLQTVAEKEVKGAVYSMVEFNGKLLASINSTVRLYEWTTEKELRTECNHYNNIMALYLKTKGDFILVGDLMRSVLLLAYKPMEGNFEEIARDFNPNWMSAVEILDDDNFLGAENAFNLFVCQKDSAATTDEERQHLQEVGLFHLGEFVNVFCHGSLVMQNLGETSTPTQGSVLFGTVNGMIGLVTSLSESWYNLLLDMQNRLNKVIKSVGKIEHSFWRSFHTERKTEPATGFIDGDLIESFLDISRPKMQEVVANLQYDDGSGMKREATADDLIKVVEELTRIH
row,IKZF2 % protein reduction at 10 µM [%],SMILES
1,83,"O=C1CCC(N2Cc3cc(O[C@H]4CCC[C@@H]4N4CCCC4)ccc3C2=O)C(=O)N1 (stereo partly drawn) [I-146, 3-(1-oxo-5-(((1S,2S)-2-(pyrrolidin-1-yl)cyclopentyl)oxy)isoindolin-2-yl)piperidine-2,6-dione]"
2,44,"O=C1CCC(N2Cc3cc(O[C@H]4CCC[C@@H]4N4CC5(COC5)C4)ccc3C2=O)C(=O)N1 (stereo partly drawn) [I-147, 3-(5-(((1S,2S)-2-(2-oxa-6-azaspiro[3.3]heptan-6-yl)cyclopentyl)oxy)-1-oxoisoindolin-2-yl)piperidine-2,6-dione]"
3,33,"CC1(CN(CC2(C)COC2)[C@H]2CCC[C@@H]2Oc2ccc3c(c2)CN(C2CCC(=O)NC2=O)C3=O)COC1 (stereo partly drawn) [I-148, 3-(5-(((1S,2S)-2-(bis((3-methyloxetan-3-yl)methyl)amino)cyclopentyl)oxy)-1-oxoisoindolin-2-yl)piperidine-2,6-dione]"
4,77,"CC1CCN([C@H]2CCC[C@@H]2Oc2ccc3c(c2)CN(C2CCC(=O)NC2=O)C3=O)CC1 (stereo partly drawn) [I-149, 3-(5-(((1S,2S)-2-(4-methylpiperidin-1-yl)cyclopentyl)oxy)-1-oxoisoindolin-2-yl)piperidine-2,6-dione]"
5,53,"O=C1CCC(N2Cc3cc(O[C@H]4CCC[C@@H]4NCc4ccncc4)ccc3C2=O)C(=O)N1 (stereo partly drawn) [I-151, 3-(1-oxo-5-(((1S,2S)-2-((pyridin-4-ylmethyl)amino)cyclopentyl)oxy)isoindolin-2-yl)piperidine-2,6-dione]"
6,82,"COC1(C)CCN([C@H]2CCC[C@@H]2Oc2ccc3c(c2)CN(C2CCC(=O)NC2=O)C3=O)CC1 (stereo partly drawn) [I-152, 3-(5-(((1S,2S)-2-(4-methoxy-4-methylpiperidin-1-yl)cyclopentyl)oxy)-1-oxoisoindolin-2-yl)piperidine-2,6-dione]"
7,83,"COC1CCN([C@H]2CCC[C@@H]2Oc2ccc3c(c2)CN(C2CCC(=O)NC2=O)C3=O)CC1 (stereo partly drawn) [I-154, 3-(5-(((1S,2S)-2-(4-methoxypiperidin-1-yl)cyclopentyl)oxy)-1-oxoisoindolin-2-yl)piperidine-2,6-dione]"
8,65,"CCN(CC1COC1)[C@H]1CCC[C@@H]1Oc1ccc2c(c1)CN(C1CCC(=O)NC1=O)C2=O (stereo partly drawn) [I-155, 3-(5-(((1S,2S)-2-(ethyl(oxetan-3-ylmethyl)amino)cyclopentyl)oxy)-1-oxoisoindolin-2-yl)piperidine-2,6-dione]"
9,70,"O=C1CCC(N2Cc3cc(O[C@H]4CCC[C@@H]4N4Cc5ccccc5C4)ccc3C2=O)C(=O)N1 (stereo partly drawn) [I-156, 3-(5-(((1S,2S)-2-(isoindolin-2-yl)cyclopentyl)oxy)-1-oxoisoindolin-2-yl)piperidine-2,6-dione]"
10,61,"COC1CN([C@H]2CCC[C@@H]2Oc2ccc3c(c2)CN(C2CCC(=O)NC2=O)C3=O)C1 (stereo partly drawn) [I-157, 3-(5-(((1S,2S)-2-(3-methoxyazetidin-1-yl)cyclopentyl)oxy)-1-oxoisoindolin-2-yl)piperidine-2,6-dione]"
11,82,"CCOC1(C)CCN([C@H]2CCC[C@@H]2Oc2ccc3c(c2)CN(C2CCC(=O)NC2=O)C3=O)CC1 (stereo partly drawn) [I-158, 3-(5-(((1S,2S)-2-(4-ethoxy-4-methylpiperidin-1-yl)cyclopentyl)oxy)-1-oxoisoindolin-2-yl)piperidine-2,6-dione]"
12,75,"CO[C@H]1CC[C@H](CN[C@H]2CCC[C@@H]2Oc2ccc3c(c2)CN(C2CCC(=O)NC2=O)C3=O)CC1 (stereo partly drawn) [I-159, 3-(5-(((1S,2S)-2-((((1r,4S)-4-methoxycyclohexyl)methyl)amino)cyclopentyl)oxy)-1-oxoisoindolin-2-yl)piperidine-2,6-dione]"
13,80,"COC1CCC(CN[C@H]2CCC[C@@H]2Oc2ccc3c(c2)CN(C2CCC(=O)NC2=O)C3=O)CC1 (stereo partly drawn) [I-161, 3-(5-(((1S,2S)-2-(((4-methoxycyclohexyl)methyl)amino)cyclopentyl)oxy)-1-oxoisoindolin-2-yl)piperidine-2,6-dione]"
14,78,"CCN(CC1CC(C)(C#N)C1)[C@H]1CCC[C@@H]1Oc1ccc2c(c1)CN(C1CCC(=O)NC1=O)C2=O (stereo partly drawn) [I-163, 3-((((1S,2S)-2-((2-(2,6-dioxopiperidin-3-yl)-1-oxoisoindolin-5-yl)oxy)cyclopentyl)(ethyl)amino)methyl)-1-methylcyclobutane-1-carbonitrile]"
15,75,"O=C1CCC(N2Cc3cc(O[C@H]4CCC[C@@H]4N4CCCOCCC4)ccc3C2=O)C(=O)N1 (stereo partly drawn) [I-167, 3-(5-(((1S,2S)-2-(1,5-oxazocan-5-yl)cyclopentyl)oxy)-1-oxoisoindolin-2-yl)piperidine-2,6-dione]"
16,74,"CO[C@H]1CC[C@H](CN(C)[C@H]2CCC[C@@H]2Oc2ccc3c(c2)CN(C2CCC(=O)NC2=O)C3=O)CC1 (stereo partly drawn) [I-171, 3-(5-(((1S,2S)-2-((((1R,4S)-4-methoxycyclohexyl)methyl)(methyl)amino)cyclopentyl)oxy)-1-oxoisoindolin-2-yl)piperidine-2,6-dione]"
17,84,"O=C1CCC(N2Cc3cc(O[C@H]4CCC[C@@H]4NCC4CCC(F)(F)CC4)ccc3C2=O)C(=O)N1 (stereo partly drawn) [I-173, 3-(5-(((1S,2S)-2-(((4,4-difluorocyclohexyl)methyl)amino)cyclopentyl)oxy)-1-oxoisoindolin-2-yl)piperidine-2,6-dione]"
18,86,"O=C1CCC(N2Cc3cc(O[C@H]4CCC[C@@H]4NCc4ccc5[nH]ccc5c4)ccc3C2=O)C(=O)N1 (stereo partly drawn) [I-174, 3-(5-(((1S,2S)-2-(((1H-indol-5-yl)methyl)amino)cyclopentyl)oxy)-1-oxoisoindolin-2-yl)piperidine-2,6-dione]"

# Same assay, conditions: 24 h, read-out: IKZF2 % protein reduction at 10 μM, 24 h
row,SMILES,IKZF2 % protein reduction at 10 µM [%]
1,"O=C1CCC(N2Cc3cc(O[C@H]4CCC[C@@H]4NCc4cccnc4)ccc3C2=O)C(=O)N1 (stereo partly drawn) [I-150, 3-(1-oxo-5-(((1S,2S)-2-((pyridin-3-ylmethyl)amino)cyclopentyl)oxy)isoindolin-2-yl)piperidine-2,6-dione]",51
2,"CC1(C)CCN([C@H]2CCC[C@@H]2Oc2ccc3c(c2)CN(C2CCC(=O)NC2=O)C3=O)CC1 (stereo partly drawn) [I-153, 3-(5-(((1S,2S)-2-(4,4-dimethylpiperidin-1-yl)cyclopentyl)oxy)-1-oxoisoindolin-2-yl)piperidine-2,6-dione]",85
3,"N#C[C@H]1CC[C@H](CN[C@H]2CCC[C@@H]2Oc2ccc3c(c2)CN(C2CCC(=O)NC2=O)C3=O)CC1 (stereo partly drawn) [I-160, (1S,4r)-4-((((1S,2S)-2-((2-(2,6-dioxopiperidin-3-yl)-1-oxoisoindolin-5-yl)oxy)cyclopentyl)amino)methyl)cyclohexane-1-carbonitrile]",75
4,"O=C1CCC(N2Cc3cc(O[C@H]4CCC[C@@H]4N4CCC(F)CC4)ccc3C2=O)C(=O)N1 (stereo partly drawn) [I-166, 3-(5-(((1S,2S)-2-(4-fluoropiperidin-1-yl)cyclopentyl)oxy)-1-oxoisoindolin-2-yl)piperidine-2,6-dione]",81
5,"CCN(C[C@H]1CC[C@H](OC)CC1)[C@H]1CCC[C@@H]1Oc1ccc2c(c1)CN(C1CCC(=O)NC1=O)C2=O (stereo partly drawn) [I-170, 3-(5-(((1S,2S)-2-(ethyl(((1r,4S)-4-methoxycyclohexyl)methyl)amino)cyclopentyl)oxy)-1-oxoisoindolin-2-yl)piperidine-2,6-dione]",67
